Results as given in paper PMC3716607, “Inhibition of Histo-blood Group Antigen Binding as a Novel Strategy to Block Norovirus Infections” (PLoS ONE, 2013).
Read-outs that look alike come from different tables or passages of the source.

What was measured:
[1] = molecular target: VA387 P dimers binding to type A and B saliva HBGAs (Norovirus GII.4 (Human calicivirus NLV/VA98387/1998), UniProt Q913Z3); experiment: biochemical; set-up: species or system GII.4 NoV (VA387)
Method: Saliva-based NoV-HBGA binding assays were performed as described previously using P dimers of VA387 (GII.4) as NoV surrogates and saliva samples and/or synthetic oligosaccharides as HBGA sources, [34], [35]. Briefly, synthetic oligosaccharides and/or boiled saliva samples with defined HBGAs phenotype were coated on 96-well microtiter plates, after blocking with nonfat milk, P dimer of VA387 were added. The bound P dimer was detected using a guinea pig antiserum against NoVs VLPs, followed by the addition of horseradish peroxidase (HRP)-conjugated goat anti-guinea pig IgG. The bound HRP conjugates were colorized by the TMB kit (Kirkegaard & Perry Laboratories), which was read an EIA spectrum reader (Tecan). The synthetic oligosaccharide-PAA conjugates (2 µg/ml, GlycoTech Corporation, Rockville, MD) were captured to a microtiter plate through coated streptavidin (5 µg/ml).
Blocking effects of the hit compounds were measured by a pre-incubation of the P dimers with the compounds at given concentrations for 30 min before the P dimers were added to the coated saliva samples or HBGA oligosaccharides in a binding assay. The blocking activity of a compound was defined as its concentration yielding 50% inhibition (IC50) in the binding assay. IC50 calculation was performed using Probit regression analysis and correlation analysis between IC50 and Ki values was performed with nonparametric Spearman’s r (two-tailed) by using SPSS statistical software version 13.0 (SPSS, Chicago, IL).

[2] = MTS cytotoxicity assay; type: cell-based, human (HeLa); rhesus monkey (LLC-MK2)
Method: This assay was performed using CellTiter 96 aqueous nonradioactive cell proliferation kits (Promega, Madison, WI) as described elsewhere. Briefly, HeLa and LLC-MK2 cells were seeded at 5×10^4 cells/ml onto a 96-well plate overnight. After an incubation with each compound at various concentrations for 3 days (the compound was added one time at the beginning of the incubation), the culture medium was replaced with fresh one with 100 µl of MTS-phenazine methosulfate/well. After a further incubation at 37°C for 2 h, the color products of MTS were measured with a plate reader at 490 nm. The cytotoxicities of individual compounds were indicated by the decrease in cellular reduction of MTS into the colored product. The 50% cytotoxic concentrations (CC50 s) were determined as the concentrations of the compounds that caused 50% inhibition of cell growth compared with that of control cells without a compound.

[3] = IC50 Saliva A, blocking assay, type A saliva, mean ± standard deviation
[4] = IC50 Saliva B, blocking assay, type B saliva, mean ± standard deviation
[5] = Activity (IC50), against binding of VA387 to the A and B saliva
[6] = 3 days incubation, HeLa and LLC-MK2 cells, cell line not given, read-out: CC50

Chain of VA387 P dimers binding to type A and B saliva HBGAs (Q913Z3 entry or part of it): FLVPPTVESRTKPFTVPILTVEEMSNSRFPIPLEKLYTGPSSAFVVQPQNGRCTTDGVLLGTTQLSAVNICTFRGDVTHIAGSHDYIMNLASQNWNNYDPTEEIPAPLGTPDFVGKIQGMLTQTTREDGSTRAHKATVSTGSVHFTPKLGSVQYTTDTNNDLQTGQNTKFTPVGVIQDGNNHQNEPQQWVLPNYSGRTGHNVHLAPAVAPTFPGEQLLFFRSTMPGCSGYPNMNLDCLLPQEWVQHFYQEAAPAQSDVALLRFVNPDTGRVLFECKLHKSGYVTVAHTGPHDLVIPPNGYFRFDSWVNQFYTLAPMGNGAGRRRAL

| SMILES | IC50 [1, 3] | IC50 [1, 4] | IC50 [1, 5] | further results |
| --- | --- | --- | --- | --- |
| O=C1CC(c2ccc([N+](=O)[O-])cc2)c2ccc3ccccc3c2N1 (centres unmarked) [ZINC00124088] | 24.5 ± 0.98 µM | 26.3 ± 1.24 µM | – | – |
| CC1(C)CC(=O)C2=C(C1)c1c(ccc3ccccc13)NC2 [ZINC00128665] | 14.1 ± 0.53 µM | 14.9 ± 0.71 µM | – | – |
| Cc1ccc(C2CC(=O)Nc3c2ccc2ccccc32)cc1[N+](=O)[O-] (centres unmarked) [ZINC00181174] | 33.5 ± 0.68 µM | 33.7 ± 1.27 µM | – | – |
| CC(=O)OCC(=O)C1CCC2C3CC=C4CC(O)CCC4(C)C3CCC12C (centres unmarked) [ZINC00652738] | 30.9 ± 1.04 µM | 30.1 ± 1.35 µM | – | – |
| CC(=O)C1=CCC2C3CC=C4CC(O)CCC4(C)C3CCC12C (centres unmarked) [ZINC00968234] | – | – | 20 to 40 µM | – |
| CC12CCC3C(CCC4CC(=O)CCC43C)C1CCC2O (centres unmarked) [ZINC03814360] | 36.9 ± 1.47 µM | 35.7 ± 1.06 µM | – | – |
| Cc1noc2c1C1(C)CCC3C(CC=C4CC(O)CCC43C)C1C2 (centres unmarked) [ZINC04014899] | 33.9 ± 1.67 µM | 34.5 ± 1.93 µM | – | – |
| C[C@]12CCC3C(CC[C@H]4CC=CC[C@]34C)C1CC/C2=N/NC(N)=S (some centres unmarked) [ZINC04026813] | 8.7 ± 1.03 µM | 8.97 ± 0.63 µM | 1 to 10 µM | CC50 at 3 days [2]: 212 µM |
| C/C(=N/O)C1=CCC2C3CC[C@H]4C/C(=N\O)CC[C@]4(C)C3CC[C@]12C (some centres unmarked) [ZINC04041115] | 2.38 ± 0.15 µM | 2.54 ± 0.21 µM | 1 to 10 µM | CC50 at 3 days [2]: 203 µM |
| CC12CCC(O)C=C1CCC1C2CCC2(C)C1CCC21CCC(=O)O1 (centres unmarked) [ZINC04081424] | – | – | 20 to 40 µM | – |
| CC12CCC(=NOCC(=O)NCC(=O)O)C=C1CCC1C2CCC2(C)C(O)CCC12 (centres unmarked) [ZINC04084183] | – | – | 10 to 20 µM | – |
| Nc1ccc2c(c1)C1C=CCC1C(c1ccc([N+](=O)[O-])cc1)N2 (centres unmarked) [ZINC04095376] | 12.6 ± 0.87 µM | 12.8 ± 0.64 µM | – | – |
| O=C(O)c1ccc(C2Nc3c(F)cccc3C3C=CCC32)cc1 (centres unmarked) [ZINC04298453] | 38 ± 2.01 µM | 39.4 ± 1.53 µM | – | – |
| COc1cc([N+](=O)[O-])cc2c1NC(c1ccccn1)C1CC=CC21 (centres unmarked) [ZINC04450155] | 24.2 ± 0.74 µM | 24.3 ± 0.87 µM | 20 to 40 µM | – |
| O=[N+]([O-])c1ccc2c(c1)C1C=CCC1C(C1CC=CCC1)N2 (centres unmarked) [ZINC04725822] | 13.2 ± 1.04 µM | 13.1 ± 0.87 µM | – | – |
| CC(CCC(=O)O)C1CCC2C3CC=C4CC(O)CCC4(C)C3CCC12C (centres unmarked) [ZINC04831336] | 7.63 ± 0.27 µM | 7.65 ± 0.33 µM | 1 to 10 µM | CC50 at 3 days [2, 6]: 225 µM |
| C[C@]12CC[C@H](O)C[C@@H]1CC[C@@H]1[C@@H]2CC[C@@]2(C)[C@H]1CC[C@]2(C)O [ZINC05223451] | 3.37 ± 0.13 µM | 3.39 ± 0.24 µM | 1 to 10 µM | CC50 at 3 days [2, 6]: 171 µM |
| CC(=O)C1CCC2C3CCC4CC(O)CCC4(C)C3CCC12C (centres unmarked) [ZINC05260830] | – | – | 1 to 10 µM | CC50 at 3 days [2, 6]: 267 µM |
| CC1CCc2c(sc3ncn(C(C)C(=O)N/N=C/c4c(O)ccc5ccccc45)c(=O)c23)C1 (centres unmarked) [ZINC06166484] | – | – | – | IC50 ([1]; read-out: IC50 Saliva A, blocking assay, type A saliva, mean ± standard deviation): 17 ± 1.06 µM; IC50 ([1]; read-out: IC50 Saliva B, blocking assay, type B saliva, mean ± standard deviation): 16.8 ± 0.87 µM |
